Data: ChEMBL document CHEMBL3045281, “Design, synthesis, and biological evaluation of new 3-hydroxy-2-oxo-3-trifluoromethylindole as potential HIV-1 reverse transcriptase inhibitors” (Med Chem Res, 2006)

What was measured:
[1] = biological target: Human immunodeficiency virus type 1 reverse transcriptase (Human immunodeficiency virus 1, UniProt Q72547); assay: Inhibition of RNA-dependent DNA polymerase activity of Human immunodeficiency virus 1 recombinant reverse transcriptase expressed in Escherichia coli using poly(rA)oligo(dT) template primer after 30 min
[2] = Cytotoxicity against Chlorocebus aethiops (African green monkey) Vero cells after 72 hr by trypan blue assay; type: cell-based; details: chlorocebus sabaeus

For `O=C1Nc2ccc(Cl)cc2C1(O)C(F)(F)F` (stereo not given), the IC50 [1] was 7.1 µM and the CC50 at 72 h [2] was greater than 700 µM.
Molecule `CN1C(=O)C(O)(C(F)(F)F)c2cc(Br)ccc21` (stereo not given) has an IC50 [1] of 3.61 µM and a CC50 at 72 h [2] greater than 250 µM.
For `CC(=O)N1C(=O)C(O)(C(F)(F)F)c2cc(Cl)ccc21` (stereo not given), the IC50 [1] was 3.41 µM and the CC50 at 72 h [2] was greater than 360 µM.
With `CC(=O)N1C(=O)C(O)(C(F)(F)F)c2cc(C)ccc21` (stereo not given) the IC50 [1] was 8.37 µM and the CC50 at 72 h [2] was greater than 650 µM.
Work on `O=C1Nc2ccccc2C1(O)C(F)(F)F` (stereo not given) yielded an IC50 [1] of 6.07 µM and a CC50 at 72 h [2] greater than 650 µM.
